Laboratory results taken from the supplement of paper PMC6045584.
± gives the standard deviation of the averaged measurements.

Assays:
[1] = compound: Oc1nc(-c2ccc(C(F)(F)F)cc2)nc2c1CSCC2 [XAV-939]; experiment: surviving fraction relative to DMSO-only wells; higher = less growth inhibition; conditions: exposure time: 5 days
In short: (§1)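 Inhibitors were tested at 0.5, 1, 5, 10, 50, 100, 500 and 1000 nM, applied continuously for five days beginning 24 hours after log-phase tumour cells were seeded at 250–500 per well in 384-well plates. CellTiter-Glo luminescence served as the viability measure, expressed as surviving fraction against the median of DMSO-only wells. Each line, screened three times, was kept only with replicate Pearson r >0.7 and median Z' >0.3.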

[2] = compound: Cn1nnc2c(C(N)=O)ncn2c1=O [TEMOZOLOMIDE]; experiment: as above; conditions: exposure time: 5 days
In short: as §1

Test System	surviving fraction ([1]; 0.5 nM)	surviving fraction ([1]; 1 nM)	surviving fraction ([1]; 5 nM)	surviving fraction ([1]; 10 nM)	surviving fraction ([1]; 50 nM)	surviving fraction ([1]; 100 nM)	surviving fraction ([1]; 500 nM)	surviving fraction ([1]; 1000 nM)	surviving fraction ([2]; 0.5 nM)	surviving fraction ([2]; 1 nM)	surviving fraction ([2]; 5 nM)	surviving fraction ([2]; 10 nM)	surviving fraction ([2]; 50 nM)	surviving fraction ([2]; 100 nM)	surviving fraction ([2]; 500 nM)	surviving fraction ([2]; 1000 nM)
HCC1395 BREAST	0.889 ± 0.052	0.822 ± 0.34	0.987 ± 0.096	0.937 ± 0.25	0.973 ± 0.12	0.847 ± 0.23	1.04 ± 0.027	0.855 ± 0.14	1.03 ± 0.034	1.1 ± 0.081	1.1 ± 0.11	1.02 ± 0.078	1.04 ± 0.044	1.01 ± 0.14	0.922 ± 0.14	1.06 ± 0.03
HCC1806 BREAST	0.98 ± 0.029	1.2 ± 0.089	1.11 ± 0.078	1.07 ± 0.061	1.14 ± 0.13	1.1 ± 0.036	1.04 ± 0.073	1.06 ± 0.091	1 ± 0.043	1.083 ± 0.0076	1.19 ± 0.052	1.07 ± 0.081	1.12 ± 0.086	1.09 ± 0.034	1.05 ± 0.16	1.12 ± 0.11
HCC1954 BREAST	0.826 ± 0.073	1.02 ± 0.041	1.15 ± 0.24	1.06 ± 0.042	1.111 ± 0.0085	0.967 ± 0.088	0.637 ± 0.0081	0.723 ± 0.057	1.11 ± 0.19	0.956 ± 0.25	1.198 ± 0.0064	1.2 ± 0.082	1.16 ± 0.12	0.989 ± 0.13	1.04 ± 0.24	0.976 ± 0.023
HCT15 LARGE INTESTINE	1.03 ± 0.058	1.07 ± 0.031	1.04 ± 0.034	1.07 ± 0.059	0.932 ± 0.054	1.03 ± 0.03	0.961 ± 0.064	0.973 ± 0.04	1.014 ± 0.0029	1.029 ± 0.0053	0.999 ± 0.055	1.02 ± 0.053	1.02 ± 0.045	1.08 ± 0.05	1.04 ± 0.063	1.09 ± 0.062
HELA CERVIX	1.02 ± 0.066	1.07 ± 0.033	1.06 ± 0.025	1.08 ± 0.036	1.09 ± 0.059	1.16 ± 0.028	1.09 ± 0.053	1.1 ± 0.049	1.04 ± 0.058	1.08 ± 0.09	1.04 ± 0.019	1.12 ± 0.078	1.07 ± 0.02	1.16 ± 0.084	1.07 ± 0.031	1.16 ± 0.072
HOS BONE	1.01 ± 0.028	1.05 ± 0.016	1.02 ± 0.013	1.04 ± 0.0066	1.04 ± 0.029	1.04 ± 0.011	0.996 ± 0.02	1.05 ± 0.065	0.994 ± 0.018	1.038 ± 0.0071	1.028 ± 0.0056	1.05 ± 0.042	1.04 ± 0.012	1.04 ± 0.012	1.04 ± 0.016	1.058 ± 0.0076
HOSMNG BONE	0.922 ± 0.14	1.01 ± 0.11	0.947 ± 0.077	0.934 ± 0.1	0.948 ± 0.17	0.944 ± 0.089	0.934 ± 0.069	1.06 ± 0.094	0.835 ± 0.15	0.927 ± 0.11	0.795 ± 0.051	0.89 ± 0.03	0.938 ± 0.12	0.936 ± 0.16	0.995 ± 0.12	0.957 ± 0.074
HSSYII SYNOVIAL	0.942 ± 0.026	0.901 ± 0.035	0.994 ± 0.043	0.976 ± 0.011	0.961 ± 0.013	0.938 ± 0.031	0.667 ± 0.034	0.617 ± 0.038	0.958 ± 0.033	0.957 ± 0.061	0.965 ± 0.039	0.998 ± 0.051	1.02 ± 0.024	0.9798 ± 0.0033	0.981 ± 0.035	0.956 ± 0.04
HT1080 SOFT TISSUE	1.05 ± 0.018	1.04 ± 0.05	1.03 ± 0.024	1.02 ± 0.023	0.971 ± 0.0036	0.872 ± 0.0099	0.579 ± 0.0091	0.476 ± 0.0083	1.04 ± 0.039	1.03 ± 0.014	1.03 ± 0.026	1.03 ± 0.022	1.03 ± 0.026	1.04 ± 0.014	1.04 ± 0.017	1.03 ± 0.023
HU09 BONE	1.11 ± 0.087	1.13 ± 0.061	1.06 ± 0.17	1.09 ± 0.051	1.01 ± 0.11	1.21 ± 0.031	0.817 ± 0.049	0.788 ± 0.043	0.817 ± 0.057	1.01 ± 0.042	1.08 ± 0.11	1.1 ± 0.014	0.964 ± 0.14	1.12 ± 0.051	0.966 ± 0.11	0.961 ± 0.076
HUO3N1 BONE	1.03 ± 0.037	1.07 ± 0.12	1.04 ± 0.032	1.06 ± 0.048	1.09 ± 0.064	1.08 ± 0.034	0.761 ± 0.043	0.759 ± 0.0095	0.981 ± 0.025	0.988 ± 0.045	1.029 ± 0.0051	1.04 ± 0.042	1.01 ± 0.039	1.06 ± 0.032	0.9827 ± 0.0083	1.02 ± 0.03
JIMT1 BREAST	1 ± 0.013	1.03 ± 0.027	0.9983 ± 0.008	0.995 ± 0.031	1 ± 0.05	1.04 ± 0.025	0.934 ± 0.032	0.943 ± 0.0033	1 ± 0.022	1.03 ± 0.032	1.021 ± 0.0081	1.07 ± 0.07	1 ± 0.022	1.04 ± 0.038	1.01 ± 0.025	1.06 ± 0.065
JURKAT HAEMATOPOIETIC AND LYMPHOID TISSUE	1.03 ± 0.011	1.051 ± 0.0042	1.04 ± 0.013	1.03 ± 0.03	0.9907 ± 0.0059	1 ± 0.018	0.987 ± 0.02	0.981 ± 0.029	1.06 ± 0.019	1.08 ± 0.024	1.05 ± 0.032	1.05 ± 0.02	1.04 ± 0.029	1.01 ± 0.029	1.02 ± 0.02	1.04 ± 0.013
KPD BONE	0.937 ± 0.07	0.981 ± 0.061	0.999 ± 0.048	0.995 ± 0.043	0.992 ± 0.058	0.926 ± 0.035	0.883 ± 0.035	0.828 ± 0.061	0.925 ± 0.022	0.955 ± 0.091	1.11 ± 0.079	1.01 ± 0.024	1.06 ± 0.088	1.074 ± 0.0076	0.983 ± 0.1	0.977 ± 0.043
LM7 BONE	0.964 ± 0.078	1.03 ± 0.062	1.05 ± 0.075	1.131 ± 0.011	1.08 ± 0.11	1.08 ± 0.048	0.915 ± 0.068	0.877 ± 0.045	0.916 ± 0.081	0.989 ± 0.086	1.04 ± 0.085	1.05 ± 0.049	1.05 ± 0.077	1.09 ± 0.022	0.968 ± 0.065	0.967 ± 0.04
LNCAP PROSTATE	0.85 ± 0.076	0.83 ± 0.11	0.94 ± 0.058	0.921 ± 0.054	0.797 ± 0.071	0.936 ± 0.1	0.741 ± 0.12	0.713 ± 0.14	0.966 ± 0.088	0.915 ± 0.073	0.985 ± 0.17	0.8907 ± 0.0074	0.93 ± 0.034	0.963 ± 0.092	0.897 ± 0.037	0.924 ± 0.083
MCF7 BREAST	0.941 ± 0.062	0.953 ± 0.07	0.954 ± 0.033	0.937 ± 0.023	1.01 ± 0.069	1.05 ± 0.041	1.03 ± 0.054	1.01 ± 0.061	0.889 ± 0.03	0.932 ± 0.023	0.934 ± 0.027	0.907 ± 0.054	0.922 ± 0.031	0.941 ± 0.037	0.958 ± 0.058	0.987 ± 0.034
MDAMB134 BREAST	1.05 ± 0.052	0.999 ± 0.041	1.06 ± 0.17	0.93 ± 0.03	1.13 ± 0.1	1.06 ± 0.22	1.15 ± 0.052	1.03 ± 0.051	0.928 ± 0.0085	0.981 ± 0.033	0.926 ± 0.14	0.902 ± 0.15	0.975 ± 0.23	1.05 ± 0.17	0.953 ± 0.2	1.11 ± 0.08
MDAMB157 BREAST	0.969 ± 0.012	0.94 ± 0.11	0.974 ± 0.059	1.05 ± 0.039	0.919 ± 0.084	0.934 ± 0.079	0.775 ± 0.071	0.709 ± 0.074	1.02 ± 0.067	0.986 ± 0.046	0.968 ± 0.09	1.1 ± 0.074	0.953 ± 0.06	1.11 ± 0.028	0.927 ± 0.055	0.954 ± 0.1
MDAMB231 BREAST	0.957 ± 0.013	1.01 ± 0.028	0.982 ± 0.021	0.983 ± 0.018	0.917 ± 0.016	0.866 ± 0.025	0.656 ± 0.015	0.586 ± 0.026	0.9454 ± 0.0069	0.992 ± 0.024	0.9815 ± 0.008	1.01 ± 0.016	0.986 ± 0.013	0.998 ± 0.023	0.975 ± 0.015	0.985 ± 0.025
MDAMB361 BREAST	0.879 ± 0.03	0.906 ± 0.036	0.955 ± 0.045	0.901 ± 0.034	1 ± 0.02	0.917 ± 0.099	0.923 ± 0.024	0.874 ± 0.054	0.914 ± 0.14	0.93 ± 0.017	0.917 ± 0.15	0.889 ± 0.1	0.983 ± 0.16	0.925 ± 0.037	0.945 ± 0.1	0.908 ± 0.042
